The subject of assay [1] is Mus musculus. The experiment in a line: Analgesic activity of compound in phase I mouse formalin activities at a dose range of […], s.c.; exhibited confounding effects. It is filed as functional, organism-based.
Assay [2] concerns Mus musculus. Put plainly: Analgesic activity of compound in phase II mouse formalin activities at a dose range of […], s.c.; exhibited confounding effects. It is filed as functional, organism-based.
In assay [3] the test system is Mus musculus. The experiment in a line: Analgesic activity of compound in phase I mouse formalin activities at a dose range of 0.4-3.1 mg, s.c. It is filed as functional. Conditions: sc.
For assay [4], the system named is Mus musculus. Put plainly: Analgesic activity of compound in phase II mouse formalin activities at a dose range of 0.4-3.1 mg, s.c. Format: functional. Conditions: sc.
Assay [5] relates to Mus musculus. The experiment in a line: Analgesic activity of compound in phase I mouse formalin activities at a dose range of 0.4-6.3 mg, s.c. Format: functional. The following applies: sc.
Assay [6] concerns Mus musculus. Put plainly: Analgesic activity of compound in phase II mouse formalin activities at a dose range of 0.4-6.3 mg, s.c. It is filed as functional. Conditions: sc.

Consider `C[C@]1(COc2ccc(Cl)nc2)C=CCN1`, for which the ED50 result in assay [1] and in assay [2] was “Counfounding effects” in each case.
For the compound `C[C@@]1(COc2ccc(Cl)nc2)C=CCN1`, the ED50 result in assay [1] and in assay [2] was “Counfounding effects” each time.
For `Clc1ccc(OC[C@@H]2C=CCN2)cn1`, the ED50 entry in assay [1] and in assay [2] was “Counfounding effects” in each case.
As to `Clc1ccc(OC[C@H]2CCN2)cn1` [TEBANICLINE], the ED50 stood at 0.9 µmol/kg in assay [3] and 0.8 µmol/kg in assay [4].
In the case of `C[C@]1(COc2cccnc2)C=CCN1`, the ED50 entry in assay [1] and in assay [2] was “Counfounding effects” throughout.
For the compound `Clc1ccc(OC[C@H]2C=CCN2)cn1`, the ED50 in assay [5] and in assay [6] was 1.6 µmol/kg in each case.
For `C[C@]1(CNc2ccc(Cl)nc2)C=CCN1`, the 50% effective dose (ED50) entry in assay [1] and in assay [2] was “Counfounding effects” in each case.
